Laboratory results published in patent US20210145838A1, “SELECTIVE PDE4D INHIBITORS AGAINST DEMYELINATING DISEASES” (Universiteit Hasselt, priority 2018, published 2021).

System: demyelinated cerebellar brain slices
Assay: Ex vivo (re)myelination in lysolecithin-demyelinated cerebellar brain slices
Type: cell-based, mouse
Details: 14-days treatment, vs vehicle
Description: FIG. 6: Inhibition of PDE4 by roflumilast induces (re)myelination in demyelinated brain slices. Mouse brain slices ([…]) were trimmed from the cerebellum of p10 C57bl6 pups. After 1 week in culture, brain slices were demyelinated using lysolecithin (16 h) and subsequently treated for 14 days with 5 μM roflumilast or vehicle (0.1% DMSO). Treatment was repeated every 2 days with a 60% medium replenishment. Brain slices were fixated using 4% paraformaldehyde and stained for MBP, neurofilament and counterstained with the nuclear DAPI dye. Three slices per animal were quantified for % myelinated axons (n:2/group).
FIG. 7: Inhibition of PDE4D by gebr32a induces (re)myelination in demyelinated brain slices. Mouse brain slices (370 μM) were trimmed from the cerebellum of p10 C57bl6 pups. […] Three slices per animal were quantified for % myelinated axons (n:2/group). […]
Organotypic cerebellar brain slices were fixed in 4% paraformaldehyde at room temperature for 40 minutes and incubated with primary antibodies diluted in blocking buffer (5% bovine serum albumin (BSA) and 0.05% Tween 20 in PBS) for 4 h at room temperature. […] Quantification was done using Fiji ImageJ by counting the percentage of myelinated axons crossing a predefined cross-sectional path.

Row | SMILES | MBP alignment with neurofilament (% myelinated axons) (0.5 μM) | MBP alignment with neurofilament (% myelinated axons) (5 μM)
1 | OC(CN1CCOCC1)Cn1ccc(-c2ccc(OC(F)F)c(OC3CCCC3)c2)n1 (centres unmarked) [Gebr32a] | four-fold increase | –
2 | O=C(Nc1c(Cl)cncc1Cl)c1ccc(OC(F)F)c(OCC2CC2)c1 [roflumilast] | – | four-fold increase
